According to ChEMBL document CHEMBL5241112, “Insights into the recent progress in the medicinal chemistry of pyranopyrimidine analogs” (RSC Med Chem, 2022):
In brackets after ≈: the same amount, converted by molar mass.

What was measured:
[1] = Antioxidant activity assessed as DPPH radical scavenging activity at 25 ug/ml incubated for 30 mins by spectrophotometric analysis; assay type: functional; conditions: dose 25.0 µg/ml
[2] = Antioxidant activity assessed as DPPH radical scavenging activity at 50 ug/ml incubated for 30 mins by spectrophotometric analysis; assay type: functional; conditions: dose 50.0 µg/ml
[3] = tested on: Staphylococcus aureus; test: Antibacterial activity against Staphylococcus aureus ATCC6538-P assessed as diameter of inhibition zone at 50 mg/ml incubated for 24 hrs by paper disk diffusion method; assay type: functional; conditions: read-out: DIZ
[4] = tested on: Streptococcus pneumoniae; test: Antibacterial activity against Streptococcus pneumoniae ATCC BAA-255/R6 assessed as diameter of inhibition zone at 50 mg/ml incubated for 24 hrs by paper disk diffusion method; assay type: functional; conditions: read-out: DIZ
[5] = tested on: Streptococcus pneumoniae; test: Antibacterial activity against Streptococcus pneumoniae ATCC BAA-255/R6 assessed as inhibition of bacterial growth incubated for 24 hrs by disk diffusion method; assay type: functional
[6] = tested on: Aspergillus fumigatus; test: microbe, parasite or virus in culture; assay type: functional; conditions: ATCC204305, dose 50 mg/ml, time 24 hrs, read-out: DIZ
[7] = Inhibition of Escherichia coli topoisomerase 4 assessed as reduction in decatenation
[8] = tested on: Pseudomonas aeruginosa; test: Antibacterial activity against Pseudomonas aeruginosa ATCC 27853 assessed as inhibition of bacterial growth incubated for 24 hrs by broth macrodilution method; assay type: functional
[9] = tested on: MCF7; test: Anticancer activity against human MCF7 cells assessed as reduction in cell viability; assay type: functional, cell-based
[10] = tested on: Pseudomonas aeruginosa; test: Antibacterial activity against Pseudomonas aeruginosa ATCC 27853 assessed as diameter of inhibition zone incubated for 24 hrs by disc diffusion assay; assay type: functional
[11] = tested on: HepG2; test: Anticancer activity against human HepG2 cells assessed as reduction in cell viability; assay type: functional, cell-based
[12] = tested on: Aspergillus niger; test: Antifungal activity against Aspergillus niger ATCC 6275 assessed as diameter of inhibition zone incubated for 7 days by disc diffusion assay; assay type: functional; conditions: time 7 day
[13] = tested on: Escherichia coli; test: Antibacterial activity against Escherichia coli ATCC 25922 assessed as inhibition of bacterial growth incubated for 24 hrs by broth macrodilution method; assay type: functional
[14] = tested on: Escherichia coli; test: Antibacterial activity against Escherichia coli ATCC 25922 assessed as diameter of inhibition zone incubated for 24 hrs by disc diffusion assay; assay type: functional
[15] = tested on: Aspergillus niger; test: Antifungal activity against Aspergillus niger ATCC 6275 assessed as inhibition of […] growth incubated for 7 days by broth macrodilution method; assay type: functional; conditions: ATCC 6275, 168 h, time 7 day
[16] = tested on: HCT-116; test: cells; conditions: Homo sapiens
[17] = tested on: Vibrio cholerae; test: Antibacterial activity against Vibrio cholerae MTCC 3906 assessed as bacterial growth inhibition by broth microdilution method; assay type: functional
[18] = tested on: Clostridium tetani; test: Antibacterial activity against Clostridium tetani MTCC 449 assessed as bacterial growth inhibition by broth microdilution method; assay type: functional
[19] = tested on: Plasmodium falciparum; test: microbe, parasite or virus in culture
[20] = tested on: Aspergillus fumigatus; test: Antifungal activity against Aspergillus fumigatus MTCC 227 assessed as fungal growth inhibition by broth microdilution method; assay type: functional
[21] = tested on: Mycobacterium tuberculosis; test: Antitubercular activity against Mycobacterium tuberculosis H37Rv assessed as bacterial growth inhibition at 250 ug/ml; assay type: functional
[22] = tested on: Mycobacterium tuberculosis; test: Antitubercular activity against Mycobacterium tuberculosis H37Rv assessed as bacterial growth inhibition at 100 ug/ml; assay type: functional
[23] = tested on: Bacillus subtilis; test: Antimicrobial activity against Bacillus subtilis assessed as diameter of inhibition zone by agar well diffusion method; assay type: functional
[24] = tested on: Escherichia coli; test: Antimicrobial activity against Escherichia coli assessed as diameter of inhibition zone by agar well diffusion method; assay type: functional
[25] = molecular target: DNA topoisomerase II (Homo sapiens, UniProt P11388+Q02880); test: Inhibition of DNA topoisomerase 2 (unknown origin); assay type: protein assay
[26] = tested on: Bacillus subtilis; test: Antibacterial activity against Bacillus subtilis ATCC 6633 assessed as diameter of inhibition zone incubated for 24 hrs by disc diffusion assay; assay type: functional
[27] = molecular target: DNA; test: Binding affinity to DNA (unknown origin) assessed as DNA intercalation; assay type: nucleic-acid assay
[28] = tested on: Staphylococcus aureus; test: Antibacterial activity against Staphylococcus aureus ATCC 25923 assessed as inhibition of bacterial growth incubated for 24 hrs by broth macrodilution method; assay type: functional
[29] = tested on: Bacillus subtilis; test: Antibacterial activity against Bacillus subtilis ATCC 6633 assessed as inhibition of bacterial growth incubated for 24 hrs by broth macrodilution method; assay type: functional
[30] = tested on: Staphylococcus aureus; test: Antibacterial activity against Staphylococcus aureus ATCC 25923 assessed as diameter of inhibition zone incubated for 24 hrs by disc diffusion assay; assay type: functional
[31] = molecular target: Hydroxycarboxylic acid receptor 2 (Homo sapiens, UniProt Q8TDS4); test: Agonist activity at human HCA2 expressed in human Flp-In-293 cells assessed as inhibition of forskolin-stimulated cAMP accumulation at 50 uM incubated for 30 mins by Lance cAMP assay; assay type: cell-based; conditions: filed as agonist
[32] = tested on: Penicillium italicum; test: microbe, parasite or virus in culture; assay type: functional; conditions: CECT 2294, dose 50 mg/ml, time 24 hrs, read-out: DIZ

Sequence of Hydroxycarboxylic acid receptor 2 (Q8TDS4 whole entry): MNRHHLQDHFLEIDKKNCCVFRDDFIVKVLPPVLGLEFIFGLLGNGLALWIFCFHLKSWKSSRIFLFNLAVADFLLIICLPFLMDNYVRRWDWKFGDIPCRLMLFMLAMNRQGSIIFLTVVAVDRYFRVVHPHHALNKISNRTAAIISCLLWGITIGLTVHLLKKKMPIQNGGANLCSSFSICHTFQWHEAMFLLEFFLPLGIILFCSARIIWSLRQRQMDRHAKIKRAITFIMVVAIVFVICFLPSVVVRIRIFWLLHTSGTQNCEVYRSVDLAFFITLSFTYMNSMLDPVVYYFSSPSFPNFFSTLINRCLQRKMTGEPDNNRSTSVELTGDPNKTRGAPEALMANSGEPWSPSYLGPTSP

Work on `NC(=O)C1=C(N)Oc2[nH]nc(-c3ccccc3)c2C1c1coc2ccccc2c1=O` (configuration not stated) yielded an Activity [1] of 62.5%.
`O=c1c(C2c3c(-c4ccccc4)n[nH]c3Oc3[nH]c(=S)n(-c4ccccc4)c(=S)c32)coc2ccccc12` (configuration not stated) gave an Activity [2] of 66.4% and an Activity [1] of 61.6%.
`Nc1nc(=O)[nH]c2c1C(c1ccc(Cl)cc1)C=C(c1cc3ccccc3oc1=O)O2` (configuration not stated) showed a zone of inhibition at 50000 µg/mL [3] of 18 mm, a zone of inhibition at 50000 µg/mL [4] of 10 mm and an MIC [5] of 7.8 µg/mL (≈ 18.6 µM). For the same compound, the zone of inhibition at 50000 µg/mL [6] was 10 mm and the IC50 [7] was 237 nM.
With `COc1ccc(C2c3c([nH]c(=O)[nH]c3=O)Oc3ncn(-c4cc(C)ccn4)c(=N)c32)cc1` (configuration not stated) the MIC [8] was 3.12 µg/mL (≈ 7.26 µM), the IC50 [9] was 2430 nM and the “diameter of the inhibition zone (DIZ)” value [10] was 17.3 mm. The IC50 [11] was 2090 nM, the “diameter of the inhibition zone (DIZ)” value [12] was 17.2 mm and the MIC [13] was 0.781 µg/mL (≈ 1.81 µM). The “diameter of the inhibition zone (DIZ)” value [14] was 18.1 mm, the MIC [15] was 15.4 µg/mL (≈ 35.7 µM) and the IC50 [16] was 2610 nM.
`Cc1nn(-c2ccccc2)c(-n2ccnc2)c1C1C(C#N)=C(N)Oc2[nH]c(=O)[nH]c(=O)c21` (configuration not stated) showed an MIC [17] of 662 µg/mL (≈ 1550 µM), an MIC [18] of 100 µg/mL (≈ 233 µM) and an IC50 [19] of 0.97 µg/mL (≈ 2.26 µM). For the same compound, the MIC [20] was 200 µg/mL (≈ 467 µM), the inhibition at 250 µg/mL [21] was 95% and the inhibition at 100 µg/mL [22] was 92%.
In the case of `CC(C)c1ccc(C2C(C#N)=C(N)Oc3[nH]c(=O)[nH]c(=O)c32)cc1` (configuration not stated), the “diameter of the inhibition zone (DIZ)” value [23] is reported as 13 mm and the “diameter of the inhibition zone (DIZ)” value [24] is reported as 10.8 mm.
For `CCC(C)n1cnc2c(c1=N)C(c1ccc(OC)cc1)c1c([nH]c(=O)[nH]c1=O)O2` (configuration not stated), the IC50 [25] was 752 nM, the IC50 [9] was 2430 nM and the IC50 [11] was 2090 nM. For the same compound, the “diameter of the inhibition zone (DIZ)” value [26] was 26 mm, the IC50 [27] was 27000 nM and the MIC [28] was 1.56 µg/mL (≈ 3.95 µM). The MIC [29] was 0.097 µg/mL (≈ 0.245 µM), the “diameter of the inhibition zone (DIZ)” value [30] was 20.8 mm and the IC50 [16] was 2610 nM.
Work on `O=C(CSc1nc(=O)c2c(CCCCCl)cc(=O)oc2[nH]1)Oc1ccccc1` yielded an Emax [31] of 85%.
`Clc1ccc(COC(Cn2ccnc2)c2ccc(Cl)cc2Cl)c(Cl)c1` (configuration not stated) [MICONAZOLE NITRATE] showed a zone of inhibition at 50000 µg/mL [32] of 17 mm and a zone of inhibition at 50000 µg/mL [6] of 19 mm.
